Experimental data: US8273774B2, “Phenoxypyridinylamide compounds” (AstraZeneca AB, priority 2008, dated 2012)

Biological target: recombinant Human Phosphodiesterase B2 (PDE4B2) (Homo sapiens, UniProt Q07343)
Test: Human Phosphodiesterase B2 Radiometric Assay
Assay type: biochemical
Settings: 0.1 μg/mL recombinant PDE4B2; preincubated at 30 C for 30 min; [3H]cyclic AMP 8 nM, stopped after 20 min; yttrium silicate SPA beads; read-out: PDE4B2 pIC50 (converted)
Summary of the method: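 Compounds preincubated 30 min at 30 C with 0.1 μg/mL recombinant PDE4B2 in 50 mM HEPES pH 7.5, 8.3 mM MgCl2, 1.7 mM EGTA, 0.01% Brij 35.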

Chain of recombinant Human Phosphodiesterase B2 (PDE4B2) (Q07343 1-564 isoform Q07343-2): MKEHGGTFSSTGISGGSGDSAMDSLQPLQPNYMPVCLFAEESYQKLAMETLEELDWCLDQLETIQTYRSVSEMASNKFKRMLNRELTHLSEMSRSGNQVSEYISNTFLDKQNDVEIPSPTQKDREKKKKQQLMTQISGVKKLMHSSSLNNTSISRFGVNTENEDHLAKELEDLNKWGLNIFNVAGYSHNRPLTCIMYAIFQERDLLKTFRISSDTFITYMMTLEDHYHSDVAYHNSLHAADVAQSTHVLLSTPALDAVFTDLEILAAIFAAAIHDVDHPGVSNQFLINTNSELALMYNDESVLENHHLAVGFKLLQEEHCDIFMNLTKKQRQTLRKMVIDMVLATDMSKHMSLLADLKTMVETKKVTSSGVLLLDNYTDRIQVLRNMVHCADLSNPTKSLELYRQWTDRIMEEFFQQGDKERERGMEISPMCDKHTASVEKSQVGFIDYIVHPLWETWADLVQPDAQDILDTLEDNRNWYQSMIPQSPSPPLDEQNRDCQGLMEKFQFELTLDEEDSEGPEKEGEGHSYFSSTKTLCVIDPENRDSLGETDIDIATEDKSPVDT

| Compound | IC50 |
| --- | --- |
| C[C@@H]1CN(CCCc2ccc(-c3cccc(Oc4ncc(F)cc4C(=O)N[C@H]4CC[C@@H](NC(=O)c5cscn5)CC4)c3)cc2)C[C@H](C)N1 [Example 155, N-((1s,4s)-4-(2-(4′-(3-((3S,5R)-3,5-dimethylpiperazin-1-yl)propyl)biphenyl-3-yloxy)-5-fluoronicotinamido)cyclohexyl)thiazole-4-carboxamide] | 0.0398 nM |
| Cc1cc(C(=O)N[C@H]2CC[C@@H](NC(=O)c3cc(F)cnc3Oc3cccc(-c4ccc(CCCN5C[C@@H](C)N[C@@H](C)C5)cc4)c3)CC2)[nH]n1 [Example 156, 2-(4′-(3-((3S,5R)-3,5-Dimethylpiperazin-1-yl)propyl)biphenyl-3-yloxy)-5-fluoro-N-((1s,4s)-4-(3-methyl-1H-pyrazole-5-carboxamido)cyclohexyl)nicotinamide] | 0.126 nM |
| Cc1cc(C(=O)N[C@H]2CC[C@@H](NC(=O)c3cc(F)cnc3Oc3cccc(-c4ccc(CCCN5CCNCC5)cc4)c3)CC2)n[nH]1 [Example 157, 5-Fluoro-N-((1s,4s)-4-(5-methyl-1H-pyrazole-3-carboxamido)cyclohexyl)-2-(4′-(3-(piperazin-1-yl)propyl)biphenyl-3-yloxy)nicotinamide] | 0.0794 nM |
| Cc1cccc(C(=O)N[C@H]2CC[C@@H](NC(=O)c3cc(F)cnc3Oc3cccc(-c4ccc(CCCNCCCO)cc4)c3)CC2)n1 [Example 158, N-((1s,4s)-4-(5-Fluoro-2-(4′-(3-(3-hydroxypropylamino)propyl)biphenyl-3-yloxy)nicotinamido)cyclohexyl)-6-methylpicolinamide] | 0.0316 nM |
| O=C(N[C@H]1CC[C@@H](NC(=O)c2cc(F)cnc2Oc2cccc(-c3ccc(CCCNCCCO)cc3)c2)CC1)c1cc2ccccn2n1 [Example 159, N-((1s,4s)-4-(5-Fluoro-2-(4′-(3-(3-hydroxypropylamino)propyl)biphenyl-3-yloxy)nicotinamido)cyclohexyl)pyrazolo[1,5-a]pyridine-2-carboxamide] | 0.0501 nM |
| Cn1nc(C(=O)N[C@H]2CC[C@@H](NC(=O)c3cc(F)cnc3Oc3cccc(-c4ccc(CCCN5CCNCC5)cc4)c3)CC2)cc1C(F)(F)F [Example 160, 5-Fluoro-N-((1s,4s)-4-(1-methyl-5-(trifluoromethyl)-1H-pyrazole-3-carboxamido)cyclohexyl)-2-(4′-(3-(piperazin-1-yl)propyl)biphenyl-3-yloxy)nicotinamide] | 0.01 nM |
| O=C(N[C@H]1CC[C@@H](NC(=O)c2cccc3cccnc23)CC1)c1cc(F)cnc1Oc1cccc(-c2ccc(CCCNCCCO)cc2)c1 [Example 161, N-((1s,4s)-4-(5-Fluoro-2-(4′-(3-(3-hydroxypropylamino)propyl)biphenyl-3-yloxy)nicotinamido)cyclohexyl)quinoline-8-carboxamide] | 0.0126 nM |
| C[C@@H]1CN(CCc2ccc(-c3cccc(Oc4ncc(F)cc4C(=O)N[C@H]4CC[C@@H](NC(=O)c5cc6n(n5)CCCC6)CC4)c3)cc2)C[C@H](C)N1 [Example 162, N-((1s,4s)-4-(2-(4′-(2-((3S,5R)-3,5-Dimethylpiperazin-1-yl)ethyl)biphenyl-3-yloxy)-5-fluoronicotinamido)cyclohexyl)-4,5,6,7-tetrahydropyrazolo[1,5-a]pyridine-2-carboxamide] | 0.0398 nM |
| C[C@@H]1CN(CCc2ccc(-c3cccc(Oc4ncc(F)cc4C(=O)N[C@H]4CC[C@@H](NC(=O)c5ccn(C)n5)CC4)c3)cc2)C[C@H](C)N1 [Example 163, 2-(4′-(2-((3S,5R)-3,5-Dimethylpiperazin-1-yl)ethyl)biphenyl-3-yloxy)-5-fluoro-N-((1s,4s)-4-(1-methyl-1H-pyrazole-3-carboxamido)cyclohexyl)nicotinamide] | 0.0398 nM |
| C[C@@H]1CN(CCCc2ccc(-c3cccc(Oc4ncc(F)cc4C(=O)N[C@H]4CC[C@@H](NC(=O)c5ccn(C)n5)CC4)c3)cc2)C[C@H](C)N1 [Example 165, 2-(4′-(3-((3S,5R)-3,5-Dimethylpiperazin-1-yl)propyl)biphenyl-3-yloxy)-5-fluoro-N-((1s,4s)-4-(1-methyl-1H-pyrazole-3-carboxamido)cyclohexyl)nicotinamide] | 0.0631 nM |
| Cc1cc(C(=O)N[C@H]2CC[C@@H](NC(=O)c3cc(F)cnc3Oc3cccc(-c4ccc(CCN5CCCN(C)CC5)cc4)c3)CC2)nn1C [Example 166, N-((1s,4s)-4-(1,5-Dimethyl-1H-pyrazole-3-carboxamido)cyclohexyl)-5-fluoro-2-(4′-(2-(4-methyl-1,4-diazepan-1-yl)ethyl)biphenyl-3-yloxy)nicotinamide] | 0.0398 nM |
| Cc1cc(C(=O)N[C@H]2CC[C@@H](NC(=O)c3cc(F)cnc3Oc3cccc(-c4ccc(CCN5CCN(C)CC5)cc4)c3)CC2)nn1C [Example 167, N-((1s,4s)-4-(1,5-Dimethyl-1H-pyrazole-3-carboxamido)cyclohexyl)-5-fluoro-2-(4′-(2-(4-methylpiperazin-1-yl)ethyl)biphenyl-3-yloxy)nicotinamide] | 0.0501 nM |
| C[C@@H]1CN(CCCc2ccc(-c3cccc(Oc4ncc(F)cc4C(=O)N[C@H]4CC[C@@H](NC(=O)c5cc6n(n5)CCCO6)CC4)c3)cc2)C[C@H](C)N1 [Example 168, N-((1s,4s)-4-(2-(4′-(3-((3S,5R)-3,5-Dimethylpiperazin-1-yl)propyl)biphenyl-3-yloxy)-5-fluoronicotinamido)cyclohexyl)-6,7-dihydro-5H-pyrazolo[5,1-b][1,3]oxazine-2-carboxamide] | 0.0501 nM |

Results, then the compound that gave them:

| IC50 | Compound |
| --- | --- |
| 0.02 nM | C[C@@H]1CN(Cc2ccc(-c3cccc(Oc4ncc(F)cc4C(=O)N[C@H]4CC[C@@H](NC(=O)c5cn6cc(F)ccc6n5)CC4)c3)c(CN3CCSCC3)c2)C[C@H](C)N1 [Example 169, N-((1s,4s)-4-(2-(4′-(((3S,5R)-3,5-Dimethylpiperazin-1-yl)methyl)-2′-(thiomorpholinomethyl)biphenyl-3-yloxy)-5-fluoronicotinamido)cyclohexyl)-6-fluoroimidazo[1,2-a]pyridine-2-carboxamide] |
| 0.0501 nM | O=C(N[C@H]1CC[C@@H](NC(=O)c2cc(F)cnc2Oc2cccc(-c3ccc(CN4CCSCC4)cc3CN3CCOCC3)c2)CC1)c1csc(CO)n1 [Example 170, N-((1s,4s)-4-(5-Fluoro-2-(2′-(morpholinomethyl)-4′-(thiomorpholinomethyl)biphenyl-3-yloxy)nicotinamido)cyclohexyl)-2-(hydroxymethyl)thiazole-4-carboxamide] |
| 0.0794 nM | CN1CCCN(CCc2ccc(-c3cccc(Oc4ncc(F)cc4C(=O)N[C@H]4CC[C@@H](NC(=O)c5cc6n(n5)CCCC6)CC4)c3)cc2)CC1 [Example 171, N-((1s,4s)-4-(5-Fluoro-2-(4′-(2-(4-methyl-1,4-diazepan-1-yl)ethyl)biphenyl-3-yloxy)nicotinamido)cyclohexyl)-4,5,6,7-tetrahydropyrazolo[1,5-a]pyridine-2-carboxamide] |
| 0.0631 nM | C[C@@H]1CN(CCCc2cccc(-c3cccc(Oc4ncc(F)cc4C(=O)N[C@H]4CC[C@@H](NC(=O)c5cc6n(n5)CCC6)CC4)c3)c2)C[C@H](C)N1 [Example 172, N-((1s,4s)-4-(2-(3′-(3-((3S,5R)-3,5-Dimethylpiperazin-1-yl)propyl)biphenyl-3-yloxy)-5-fluoronicotinamido)cyclohexyl)-5,6-dihydro-4H-pyrrolo[1,2-b]pyrazole-2-carboxamide] |
| 0.0398 nM | O=C(N[C@H]1CC[C@@H](NC(=O)c2cc(F)cnc2Oc2cccc(-c3ccc(CCCN4CCNCC4)cc3)c2)CC1)c1cc(C2CC2)n[nH]1 [Example 173, N-((1s,4s)-4-(3-Cyclopropyl-1H-pyrazole-5-carboxamido)cyclohexyl)-5-fluoro-2-(4′-(3-(piperazin-1-yl)propyl)biphenyl-3-yloxy)nicotinamide] |
| 0.1 nM | C[C@@H]1CN(CCCc2cccc(-c3cccc(Oc4ncc(F)cc4C(=O)N[C@H]4CC[C@@H](NC(=O)c5cc6n(n5)CCCC6)CC4)c3)c2)C[C@H](C)N1 [Example 174, N-((1s,4s)-4-(2-(3′-(3-((3S,5R)-3,5-Dimethylpiperazin-1-yl)propyl)biphenyl-3-yloxy)-5-fluoronicotinamido)cyclohexyl)-4,5,6,7-tetrahydropyrazolo[1,5-a]pyridine-2-carboxamide] |
| 0.02 nM | Cc1cccc2nc(C(=O)N[C@H]3CC[C@@H](NC(=O)c4cc(F)cnc4Oc4cccc(-c5ccc(CN6C[C@@H](C)N[C@@H](C)C6)cc5CN5CCOC[C@@H]5C)c4)CC3)cn12 [Example 175, N-((1s,4s)-4-(2-(4′-(((3S,5R)-3,5-Dimethylpiperazin-1-yl)methyl)-2′-(((S)-3-methylmorpholino)methyl)biphenyl-3-yloxy)-5-fluoronicotinamido)cyclohexyl)-5-methylimidazo[1,2-a]pyridine-2-carboxamide] |
| 0.0501 nM | Cn1nc(C(=O)N[C@H]2CC[C@@H](NC(=O)c3cc(F)cnc3Oc3cccc(-c4ccc(CCN5CCNCC5)cc4)c3)CC2)cc1C(F)(F)F [Example 176, 5-Fluoro-N-((1s,4s)-4-(1-methyl-5-(trifluoromethyl)-1H-pyrazole-3-carboxamido)cyclohexyl)-2-(4′-(2-(piperazin-1-yl)ethyl)biphenyl-3-yloxy)nicotinamide] |
| 0.0501 nM | Cc1nc(C(=O)N[C@H]2CC[C@@H](NC(=O)c3cc(F)cnc3Oc3cccc(-c4ccc(CCN5CCNCC5)cc4)c3)CC2)cs1 [Example 177, N-((1s,4s)-4-(5-Fluoro-2-(4′-(2-(piperazin-1-yl)ethyl)biphenyl-3-yloxy)nicotinamido)cyclohexyl)-2-methylthiazole-4-carboxamide] |
| 0.0398 nM | Cc1cc(C)n2ncc(C(=O)N[C@H]3CC[C@@H](NC(=O)c4cc(F)cnc4Oc4cccc(-c5ccc(CN6CCN(CC(=O)NC(C)C)CC6)cc5CN5CCOCC5)c4)CC3)c2n1 [Example 178, N-((1s,4s)-4-(5-Fluoro-2-(4′-((4-(2-(isopropylamino)-2-oxoethyl)piperazin-1-yl)methyl)-2′-(morpholinomethyl)biphenyl-3-yloxy)nicotinamido)cyclohexyl)-5,7-dimethylpyrazolo[1,5-a]pyrimidine-3-carboxamide] |
